Molecules are shown by their SMILES. “Also recorded” adds a separate entry of the source.

The test system of experiment [1] is schizophrenia. The settings on record: cited from earlier work; for Effect on psychosis / symptoms of schizophrenia, other anticonvulsants: reports on use in schizophrenia (Citrome 2003, p. 85); for Effect on symptoms of schizophrenia: add-on to antipsychotics (Citrome 2003, p. 86).
For experiment [2] the following is noted: range 60-400; cited from earlier work.
For experiment [3], the system named is C57BL/6J mice. The experiment can be described thus: Prepulse inhibition (PPI) of the acoustic startle reflex in mice. The format is in vivo. The conditions noted are these: for Mean PPI: 30 min prior to testing. From the text: Chow and water were provided ad libitum for the duration of the study.
Responses were sampled every ms. The inter-trial interval was variable with an average of 15 s (range from 10 to 20 s).

Experiment [4] concerns voltage-gated calcium channels. The settings on record: cited from earlier work.
Experiment [5] has as its system GABA receptor subtypes. The conditions noted are these: cited from earlier work.
For experiment [6], the system named is voltage-gated sodium channels. The settings on record: cited from earlier work.
Experiment [7] deals with potassium currents. The conditions noted are these: cited from earlier work.

With `NCC1(CC(=O)O)CCCCC1` [gabapentin], the “Effect on psychosis / symptoms of schizophrenia, other anticonvulsants” value in experiment [1] is “general worsening of psychosis”.

Regarding `CCCC(CCC)C(=O)O` [Valproate], the “Effect on symptoms of schizophrenia” value in experiment [1] is “preferentially reduce the positive symptoms”. The “Effect on onset of action of the antipsychotic” value in experiment [1] (add-on to olanzapine or risperidone (Casey et al. 2003)) is reported as “enhance the onset of action”.

Consider `NC(=O)N1c2ccccc2C=Cc2ccccc21` [carbamazepine], for which the “Clinical outcome compared with antipsychotic monotherapy” value in experiment [1] (add-on to haloperidol) is given as “worse clinical outcome”. Also, the “Improvement on the total BPRS (brief psychiatric rating scale)” value in experiment [1] (another study on the use of carbamazepine) is listed as “failure to detect significant improvement”.

Turning to `CC1(C)O[C@@H]2[C@@H](CO[C@@]3(COS(N)(=O)=O)OC(C)(C)O[C@@H]23)O1` [topiramate], in experiment [1], the “Effect on psychosis / symptoms of schizophrenia, other anticonvulsants” value was “deterioration in both positive and negative symptoms”.

Consider `CCCCCCCCCC(=O)OCCN1CCN(CC/C=C2/c3ccccc3Sc3ccc(Cl)cc32)CC1` [Zuclopenthixol decanoate], for which the Minimum effective dose in experiment [2] is listed as 200 mg/2 weeks.

`CN1CCN(C2=Nc3cc(Cl)ccc3Nc3ccccc32)CC1` [clozapine]: the “Mean PPI” value in experiment [3] (VEH 1/clozapine 3 mg/kg i.p., PPI expressed as a percentage of the basic startle response) is 45 ± 2.

As for `COC[C@@H](NC(C)=O)C(=O)NCc1ccccc1` [lacosamide, (R)-2-acetamide-N-benzyl-3-methoxypropionamide], the “Inhibition of voltage-gated calcium channels” value in experiment [4] is “does not inhibit”. Further, the “Direct interaction with known GABA receptor subtypes” value in experiment [5] is recorded as “does not directly interact”. Moreover, the “Inhibition of voltage-gated sodium channels” value in experiment [6] is reported as “does not inhibit”. Further, the “Mean PPI” value in experiment [3] (lacosamide 3 mg/kg/VEH 2 i.p.) is reported as 29 ± 3; in experiment [3] (lacosamide 10 mg/kg/VEH 2 i.p.), 34 ± 3; in experiment [3] (lacosamide 30 mg/kg/VEH 2 i.p.), 27 ± 2. Also, the “Effect on prepulse inhibition compared to vehicle” value in experiment [3] (lacosamide administered alone, any dose tested) is listed as “did not have any significant effect; also recorded: no significant effect”. Besides, the “Potentiation of potassium currents” value in experiment [7] was “does not potentiate”.

Consider `Nc1nnc(-c2cccc(Cl)c2Cl)c(N)n1` [lamotrigine], for which, in experiment [1], the “Effect on symptoms of schizophrenia” value is listed as “preferentially reduce the positive symptoms”. Also, in experiment [1] (added to clozapine, double-blind placebo controlled clinical trial, treatment-resistant schizophrenia), the “Effect in schizophrenia when added to clozapine” value is listed as “beneficial for the treatment of treatment-resistant schizophrenia; also recorded: improvement of positive, not negative symptoms”.
